According to patent US8242275B2, “Bicyclic pyrazole compounds as antibacterial agents” (Janssen Pharmaceutica NV, priority 2005, dated 2012):
Values after ≈ are worked out from the molar mass of the structure shown.

Tests used:
[1] = tested on: E. coli KL-16 (GSC strain 4245); assay: In vitro antibacterial activity (MIC assay), broth microdilution; assay type: cell-based; conditions: Escherichia coli
Procedure, shortened: (§1)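 Bacteria at roughly 5×10^5 CFU/mL final were grown 16–24 h at 35° C in wells holding 2-fold serial dilutions (11 points) of compound prepared in 100% DMSO, following NCCLS M7-A5. MIC, in μg/mL, is the concentration that stops visible growth relative to untreated wells.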

[2] = tested on: S. aureus ATCC13709; assay: as above; assay type: cell-based; conditions: Staphylococcus aureus, ATCC13709; read-out: S. aureus ATCC13709 MIC
Procedure, shortened: as §1

[3] = tested on: S. pneumoniae ATCC49619; assay: as above; assay type: cell-based; conditions: Streptococcus pneumoniae, ATCC49619; read-out: S. pneumoniae ATCC49619 MIC
Procedure, shortened: as §1

[4] = biological target: T1, E. coli DNA gyrase (Escherichia coli, UniProt P0AES4+P0AES6); assay: DNA gyrase inhibition assay (supercoiling); assay type: biochemical; conditions: E. coli DNA gyrase supercoiling, visual inspection of gels; read-out: DNA Gyrase IC50 (converted)
T1 construct: purchased John Innes Enterprises Ltd. (John Innes Centre, UK)
T1 sequence (P0AES4 whole entry, one chain of several): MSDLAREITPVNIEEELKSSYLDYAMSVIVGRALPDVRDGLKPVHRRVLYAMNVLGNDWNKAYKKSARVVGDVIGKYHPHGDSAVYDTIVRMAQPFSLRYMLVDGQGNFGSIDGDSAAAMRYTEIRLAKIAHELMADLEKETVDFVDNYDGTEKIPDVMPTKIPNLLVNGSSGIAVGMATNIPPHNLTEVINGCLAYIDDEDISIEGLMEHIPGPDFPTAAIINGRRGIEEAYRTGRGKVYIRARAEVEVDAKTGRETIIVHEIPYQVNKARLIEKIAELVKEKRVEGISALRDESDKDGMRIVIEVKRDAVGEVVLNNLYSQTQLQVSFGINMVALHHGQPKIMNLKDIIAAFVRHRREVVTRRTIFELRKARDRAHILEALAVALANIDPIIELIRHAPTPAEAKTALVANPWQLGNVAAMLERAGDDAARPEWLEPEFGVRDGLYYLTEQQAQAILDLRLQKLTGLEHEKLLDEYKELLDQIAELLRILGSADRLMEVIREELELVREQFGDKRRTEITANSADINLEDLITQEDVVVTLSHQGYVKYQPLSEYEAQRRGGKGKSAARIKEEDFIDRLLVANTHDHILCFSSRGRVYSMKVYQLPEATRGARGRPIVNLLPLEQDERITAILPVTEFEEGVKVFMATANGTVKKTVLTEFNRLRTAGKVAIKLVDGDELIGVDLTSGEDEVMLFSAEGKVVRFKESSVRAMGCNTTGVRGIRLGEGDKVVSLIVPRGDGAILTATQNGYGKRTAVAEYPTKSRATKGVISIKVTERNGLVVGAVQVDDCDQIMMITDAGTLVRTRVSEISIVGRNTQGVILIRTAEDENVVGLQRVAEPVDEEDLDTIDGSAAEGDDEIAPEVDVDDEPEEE
Procedure, shortened: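 Agarose-gel (1.0%, ethidium-stained) readout of supercoiled versus relaxed pBR322 after 30 min at 37° C. Each reaction held 250 ng DNA, 0.2 unit enzyme, 1 mM ATP, 4 mM MgCl2, 24 mM KCl in 35 mM Tris-HCl pH 7.5, and compound at 0.5% DMSO final.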

[5] = biological target: T2, E. coli topoisomerase IV (Escherichia coli, UniProt P0AFI2+P20083); assay: Topoisomerase IV inhibition assay (relaxation); assay type: biochemical; conditions: E. coli topoisomerase IV relaxation, visual inspection of gels; read-out: Topoisomerase IV IC50 (converted)
T2 construct: purchased John Innes Enterprises Ltd. (John Innes Centre, UK)
T2 sequence (P0AFI2 whole entry): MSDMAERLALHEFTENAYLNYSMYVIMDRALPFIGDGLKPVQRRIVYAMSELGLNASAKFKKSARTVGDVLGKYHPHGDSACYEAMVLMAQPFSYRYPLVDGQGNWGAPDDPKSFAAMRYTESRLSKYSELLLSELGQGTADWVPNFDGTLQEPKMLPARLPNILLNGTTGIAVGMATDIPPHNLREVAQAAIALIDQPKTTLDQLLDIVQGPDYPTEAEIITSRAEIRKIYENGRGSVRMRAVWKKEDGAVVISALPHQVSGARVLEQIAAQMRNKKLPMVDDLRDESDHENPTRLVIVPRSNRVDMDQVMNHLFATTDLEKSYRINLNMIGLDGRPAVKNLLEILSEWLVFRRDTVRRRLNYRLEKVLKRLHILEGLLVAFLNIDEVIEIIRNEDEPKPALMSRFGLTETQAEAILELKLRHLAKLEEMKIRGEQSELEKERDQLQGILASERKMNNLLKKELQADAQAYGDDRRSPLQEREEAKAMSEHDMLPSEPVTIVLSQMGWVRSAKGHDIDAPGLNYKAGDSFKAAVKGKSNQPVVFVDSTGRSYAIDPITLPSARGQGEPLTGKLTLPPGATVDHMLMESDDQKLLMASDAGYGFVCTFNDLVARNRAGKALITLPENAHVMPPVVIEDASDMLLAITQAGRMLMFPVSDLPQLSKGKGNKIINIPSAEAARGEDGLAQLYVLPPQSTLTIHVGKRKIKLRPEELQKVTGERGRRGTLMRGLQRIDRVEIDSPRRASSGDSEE
T2 sequence (P20083 whole entry): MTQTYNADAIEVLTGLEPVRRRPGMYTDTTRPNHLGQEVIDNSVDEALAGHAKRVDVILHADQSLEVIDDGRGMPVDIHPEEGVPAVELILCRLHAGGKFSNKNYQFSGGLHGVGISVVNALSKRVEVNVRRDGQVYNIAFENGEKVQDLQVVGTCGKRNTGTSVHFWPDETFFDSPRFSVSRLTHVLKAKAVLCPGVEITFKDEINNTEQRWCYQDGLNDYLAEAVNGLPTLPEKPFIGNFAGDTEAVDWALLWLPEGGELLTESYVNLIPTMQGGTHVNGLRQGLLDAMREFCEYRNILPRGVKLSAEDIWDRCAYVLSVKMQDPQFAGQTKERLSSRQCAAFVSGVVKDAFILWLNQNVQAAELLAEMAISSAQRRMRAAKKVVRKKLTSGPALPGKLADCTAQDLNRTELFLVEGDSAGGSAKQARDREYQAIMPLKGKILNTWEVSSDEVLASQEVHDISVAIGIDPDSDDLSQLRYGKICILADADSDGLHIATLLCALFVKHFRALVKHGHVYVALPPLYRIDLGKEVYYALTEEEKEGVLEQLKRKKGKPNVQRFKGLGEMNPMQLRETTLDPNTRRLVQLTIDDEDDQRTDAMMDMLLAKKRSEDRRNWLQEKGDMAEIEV
Experimental: Inhibition of the relaxation activity of E. coli topoisomerase IV was determined using enzyme, buffers and substrates received from John Innes Enterprises Ltd. (John Innes Centre, UK). The reactions were performed according to the manufacturer's directions, with the following modifications.
DNA relaxation reactions were carried out in a total reaction volume of 20 μL, containing 300 ng of supercoiled pBR322, 40 mM HEPES-KOH (pH 7.6), 100 mM potassium glutamate, 10 mM Mg(OAc)2, 10 mM DTT, 4 μg/mL tRNA, 2 mM ATP, and 50 μg/mL BSA. Compounds, diluted in 10% DMSO, were added to the reaction mixture to reach a final concentration of 0.5% DMSO. Enzyme was diluted to 0.45 unit/μL in a solution of 40 mM HEPES-KOH (pH 7.6), 150 mM potassium glutamate, 1 mM DTT, 1 mM EDTA, and 40% glycerol. Diluted enzyme (0.9 unit) was added to each reaction.
The reactions were incubated at 37° C. for 45 min. The reactions were then cooled to 0° C. followed by addition of 3 μL of 40% glycerol, 100 mM Tris-HCl (pH 7.5), 50 mM EDTA, 0.5% SDS and 0.1% bromophenol blue. Samples were separated on 1.0% agarose gels. Gels were stained with Ethidium bromide and photographed with a Stratagene Eagle Eye II.

SMILES | MIC [1] [µg/mL] | MIC [2] [µg/mL] | MIC [3] [µg/mL] | IC50 [4] [µM] | IC50 [5] [µM]
COc1ccc2nccc(-n3cc4c(n3)CCC(NCc3cc5c(cc3F)SCC(=O)N5)C4)c2n1 (stereo not drawn) [Example 40, 7-Fluoro-6-{[2-(6-methoxy-[1,5]naphthyridin-4-yl)-4,5,6,7-tetrahydro-2H-indazol-5-ylamino]-methyl}-4H-benzo[1,4]thiazin-3-one] | 4 (≈ 8.15 µM) | 0.25 (≈ 0.51 µM) | 4 (≈ 8.15 µM) | 4.08 | 0.122
COc1ccc2nccc(-n3cc4c(n3)CCC(NCC(=O)Nc3ccc5c(c3)NC(=O)CS5)C4)c2n1 (stereo not drawn) [Example 83, 2-[2-(6-Methoxy-[1,5]naphthyridin-4-yl)-4,5,6,7-tetrahydro-2H-indazol-5-ylamino]-N-(3-oxo-3,4-dihydro-2H-benzo[1,4]thiazin-6-yl)-acetamide] | > 128 | 2 (≈ 3.88 µM) | 32 (≈ 62.1 µM) | < 0.485 | 0.485
COc1ccc2nccc(-n3cc4c(n3)CCC(NCc3ccc5c(n3)NC(=O)CO5)C4)c2n1 (stereo not drawn) [Example 44, 6-{[2-(6-Methoxy-[1,5]naphthyridin-4-yl)-4,5,6,7-tetrahydro-2H-indazol-5-ylamino]-methyl}-4H-pyrido[3,2-b][1,4]oxazin-3-one] | 2 (≈ 4.37 µM) | 0.5 (≈ 1.09 µM) | 2 (≈ 4.37 µM) | < 0.273 | 0.035
COc1ccc2nccc(-n3cc4c(n3)CCC(NC(=O)c3cc5c(cc3Br)SCC(=O)N5)C4)c2n1 (stereo not drawn) [Example 113, 7-Bromo-3-oxo-3,4-dihydro-2H-benzo[1,4]thiazine-6-carboxylic acid [2-(6-methoxy-[1,5]naphthyridin-4-yl)-4,5,6,7-tetrahydro-2H-indazol-5-yl]-amide] | 2 (≈ 3.54 µM) | 0.125 (≈ 0.221 µM) | 2 (≈ 3.54 µM) | 0.442 | 0.442
COc1ccc2nccc(-n3cc4c(n3)CCC(NCc3ccc5c(c3)OCCO5)C4)c2n1 (stereo not drawn) [Example 42, (2,3-Dihydro-benzo[1,4]dioxin-6-ylmethyl)-[2-(6-methoxy-[1,5]naphthyridin-4-yl)-4,5,6,7-tetrahydro-2H-indazol-5-yl]-amine] | 32 (≈ 72.2 µM) | 0.03 (≈ 0.0676 µM) | 0.5 (≈ 1.13 µM) | 2.25 | 0.564
COc1ccc2nccc(-n3cc4c(n3)CCC(NCc3cc5c(cc3F)SCC(=O)N5)C4)c2c1 (stereo not drawn) [Example 53, 7-Fluoro-6-{[2-(6-methoxy-quinolin-4-yl)-4,5,6,7-tetrahydro-2H-indazol-5-ylamino]-methyl}-4H-benzo[1,4]thiazin-3-one] | 4 (≈ 8.17 µM) | 0.25 (≈ 0.511 µM) | 2 (≈ 4.09 µM) | 1.02 | 0.0327
O=C1CSc2cc(F)c(C(=O)NC3CCc4nn(-c5cccc6cccnc56)cc4C3)cc2N1 (stereo not drawn) [Example 32, 7-Fluoro-3-oxo-3,4-dihydro-2H-benzo[1,4]thiazine-6-carboxylic acid (2-quinolin-8-yl-4,5,6,7-tetrahydro-2H-indazol-5-yl)-amide] | 16 (≈ 33.8 µM) | 0.25 (≈ 0.528 µM) | 4 (≈ 8.45 µM) |  | 0.264
COc1ccc2nccc(-n3cc4c(n3)CCC(NC(=O)c3cc5ccccc5s3)C4)c2c1 (stereo not drawn) [Example 23, Benzo[b]thiophene-2-carboxylic acid [2-(6-methoxy-quinolin-4-yl)-4,5,6,7-tetrahydro-2H-indazol-5-yl]-amide] | > 128 | < 0.125 | 2 (≈ 4.4 µM) |  | > 2.2
COc1ccc2nccc(-n3cc4c(n3)CCC(NCc3cc5c(cc3Cl)OCCO5)C4)c2c1 (stereo not drawn) [Example 103, (7-Chloro-2,3-dihydro-benzo[1,4]dioxin-6-ylmethyl)-[2-(6-methoxy-quinolin-4-yl)-4,5,6,7-tetrahydro-2H-indazol-5-yl]-amine] | 32 (≈ 67.1 µM) | 0.5 (≈ 1.05 µM) | 4 (≈ 8.39 µM) | 4.19 | 0.524
COc1ccc2nccc(-n3cc4c(n3)CCC(NCc3ccc5c(c3)OCO5)C4)c2n1 (stereo not drawn) [Example 37, Benzo[1,3]dioxol-5-ylmethyl-[2-(6-methoxy-[1,5]naphthyridin-4-yl)-4,5,6,7-tetrahydro-2H-indazol-5-yl]-amine] | 32 (≈ 74.5 µM) | 0.5 (≈ 1.16 µM) | 2 (≈ 4.66 µM) | 0.582 | 0.582
